According to PubChem BioAssay AID1963837 (Molecular Pharmacology Branch, DTP, NCI, 2024):

System: 843126-344-R-J1-PDC complex spheroid viability
Test: Anticancer human tumor 843126-344-R-J1-PDC patient-derived melanoma cell line growth inhibition [POLQ]
Conditions: for IC50: curve of first compound; for viability, T/C: stronger effect = lower value
Method in brief: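 Patient-derived tumour cells were co-cultured with HUVEC and mesenchymal stem cells as multicellular spheroids at 37 °C. They were treated with POLQ inhibitors (novobiocin, ART-558, RP6685) alone or combined with other agents. Top concentrations were at or near clinical Cmax (otherwise 10 microM; SN-38 at 1 microM), decreasing in half-log steps.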

[1] = second compound 0.0316 µM, first compound 0.0316 µM
[2] = second compound 0.0316 µM, first compound 0.1 µM
[3] = second compound 0.0316 µM, first compound 0.316 µM
[4] = second compound 0.0316 µM, first compound 1 µM
[5] = second compound 0.0316 µM, first compound 3.16 µM
[6] = second compound 0.0316 µM, first compound 10 µM
[7] = second compound 0.1 µM, first compound 0.0316 µM
[8] = second compound 0.1 µM, first compound 0.1 µM
[9] = second compound 0.1 µM, first compound 0.316 µM
[10] = second compound 0.1 µM, first compound 1 µM
[11] = second compound 0.1 µM, first compound 3.16 µM
[12] = second compound 0.1 µM, first compound 10 µM
[13] = second compound 0.316 µM, first compound 0.0316 µM
[14] = second compound 0.316 µM, first compound 0.1 µM
[15] = second compound 0.316 µM, first compound 0.316 µM
[16] = second compound 0.316 µM, first compound 1 µM
[17] = second compound 0.316 µM, first compound 3.16 µM
[18] = second compound 0.316 µM, first compound 10 µM
[19] = second compound 1 µM, first compound 0.0316 µM
[20] = second compound 1 µM, first compound 0.1 µM
[21] = second compound 1 µM, first compound 0.316 µM
[22] = second compound 1 µM, first compound 1 µM
[23] = second compound 1 µM, first compound 3.16 µM
[24] = second compound 1 µM, first compound 10 µM
[25] = second compound 3.16 µM, first compound 0.0316 µM
[26] = second compound 3.16 µM, first compound 0.1 µM
[27] = second compound 3.16 µM, first compound 0.316 µM
[28] = second compound 3.16 µM, first compound 1 µM
[29] = second compound 3.16 µM, first compound 3.16 µM
[30] = second compound 3.16 µM, first compound 10 µM
[31] = second compound 10 µM, first compound 0.0316 µM
[32] = second compound 10 µM, first compound 0.1 µM
[33] = second compound 10 µM, first compound 0.316 µM
[34] = second compound 10 µM, first compound 1 µM
[35] = second compound 10 µM, first compound 3.16 µM
[36] = second compound 10 µM, first compound 10 µM
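Throughout, for viability, T/C: spheroids exposed to drugs for seven days before readout.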

C#Cc1c(F)ccc2cc(O)cc(-c3ncc4c(N5CC6CCC(C5)N6)nc(OCC56CCCN5CC(F)C6)nc4c3F)c12 (stereo not drawn) + Nc1ccc(C#CCN(C(=O)Cc2ncc(C(F)(F)F)cc2C(F)(F)F)c2ccc(F)cc2)nn1
IC50 (second compound 0.0316 µM): > 10 µM | IC50 (second compound 0.1 µM): > 10 µM | IC50 (second compound 0.316 µM): > 10 µM | IC50 (second compound 1 µM): > 10 µM | IC50 (second compound 3.16 µM): > 10 µM | IC50 (second compound 10 µM): > 10 µM | viability, T/C [1]: 87.4% | viability, T/C [2]: 95.1% | viability, T/C [3]: 99.8% | viability, T/C [4]: 88.7% | viability, T/C [5]: 121% | viability, T/C [6]: 76.5% | viability, T/C [7]: 106% | viability, T/C [8]: 110% | viability, T/C [9]: 96.7% | viability, T/C [10]: 108% | viability, T/C [11]: 103% | viability, T/C [12]: 84.5% | viability, T/C [13]: 100% | viability, T/C [14]: 91.4% | viability, T/C [15]: 84.5% | viability, T/C [16]: 110% | viability, T/C [17]: 95.1% | viability, T/C [18]: 90.8% | viability, T/C [19]: 107% | viability, T/C [20]: 91.2% | viability, T/C [21]: 91.2% | viability, T/C [22]: 117% | viability, T/C [23]: 109% | viability, T/C [24]: 88.8% | viability, T/C [25]: 89.1% | viability, T/C [26]: 84.2% | viability, T/C [27]: 108% | viability, T/C [28]: 94.5% | viability, T/C [29]: 97.6% | viability, T/C [30]: 82.6% | viability, T/C [31]: 95.3% | viability, T/C [32]: 83.4% | viability, T/C [33]: 86.5% | viability, T/C [34]: 83.6% | viability, T/C [35]: 85.8% | viability, T/C [36]: 79.4%

COc1cc(C2c3cc4c(cc3C(OC3OC5COC(C)OC5C(O)C3O)C3COC(=O)C23)OCO4)cc(OC)c1O (stereo not drawn) + Nc1ccc(C#CCN(C(=O)Cc2ncc(C(F)(F)F)cc2C(F)(F)F)c2ccc(F)cc2)nn1
IC50 (second compound 0.0316 µM): > 10 µM | IC50 (second compound 0.1 µM): > 10 µM | IC50 (second compound 0.316 µM): > 10 µM | IC50 (second compound 1 µM): > 10 µM | IC50 (second compound 3.16 µM): 7.6 µM | IC50 (second compound 10 µM): 6.29 µM | viability, T/C [1]: 82.4% | viability, T/C [2]: 78.3% | viability, T/C [3]: 94% | viability, T/C [4]: 89.7% | viability, T/C [5]: 58.3% | viability, T/C [6]: 49.5% | viability, T/C [7]: 97.1% | viability, T/C [8]: 77.8% | viability, T/C [9]: 92% | viability, T/C [10]: 94.3% | viability, T/C [11]: 73.4% | viability, T/C [12]: 51.4% | viability, T/C [13]: 91.8% | viability, T/C [14]: 104% | viability, T/C [15]: 99.1% | viability, T/C [16]: 78.9% | viability, T/C [17]: 70.1% | viability, T/C [18]: 49.5% | viability, T/C [19]: 96.1% | viability, T/C [20]: 83.6% | viability, T/C [21]: 80.5% | viability, T/C [22]: 71.6% | viability, T/C [23]: 64.3% | viability, T/C [24]: 53.5% | viability, T/C [25]: 88.3% | viability, T/C [26]: 77% | viability, T/C [27]: 89.9% | viability, T/C [28]: 75.2% | viability, T/C [29]: 68.6% | viability, T/C [30]: 44.3% | viability, T/C [31]: 81.8% | viability, T/C [32]: 96.5% | viability, T/C [33]: 78.5% | viability, T/C [34]: 75.4% | viability, T/C [35]: 61.7% | viability, T/C [36]: 42.3%

CCc1c2c(nc3ccc(O)cc13)-c1cc3c(c(=O)n1C2)COC(=O)[C@]3(O)CC + Nc1ccc(C#CCN(C(=O)Cc2ncc(C(F)(F)F)cc2C(F)(F)F)c2ccc(F)cc2)nn1
IC50 (second compound 0.0316 µM): > 1 µM | IC50 (second compound 0.1 µM): > 1 µM | IC50 (second compound 0.316 µM): > 1 µM | IC50 (second compound 1 µM): > 1 µM | IC50 (second compound 3.16 µM): > 1 µM | IC50 (second compound 10 µM): > 1 µM | viability, T/C (second compound 0.0316 µM, first compound 0.00316 µM): 68.2% | viability, T/C (second compound 0.0316 µM, first compound 0.01 µM): 60% | viability, T/C [1]: 63.9% | viability, T/C [2]: 64.7% | viability, T/C [3]: 58.8% | viability, T/C [4]: 49.1% | viability, T/C (second compound 0.1 µM, first compound 0.00316 µM): 64.3% | viability, T/C (second compound 0.1 µM, first compound 0.01 µM): 47.4% | viability, T/C [7]: 59% | viability, T/C [8]: 65.8% | viability, T/C [9]: 65% | viability, T/C [10]: 47.9% | viability, T/C (second compound 0.316 µM, first compound 0.00316 µM): 69.5% | viability, T/C (second compound 0.316 µM, first compound 0.01 µM): 56.3% | viability, T/C [13]: 61.3% | viability, T/C [14]: 57.2% | viability, T/C [15]: 63.3% | viability, T/C [16]: 48.5% | viability, T/C (second compound 1 µM, first compound 0.00316 µM): 75.3% | viability, T/C (second compound 1 µM, first compound 0.01 µM): 46.9% | viability, T/C [19]: 61.3% | viability, T/C [20]: 62.8% | viability, T/C [21]: 66.5% | viability, T/C [22]: 46.3% | viability, T/C (second compound 3.16 µM, first compound 0.00316 µM): 70.3% | viability, T/C (second compound 3.16 µM, first compound 0.01 µM): 64.5% | viability, T/C [25]: 52.7% | viability, T/C [26]: 72.5% | viability, T/C [27]: 63.3% | viability, T/C [28]: 52.2% | viability, T/C (second compound 10 µM, first compound 0.00316 µM): 67.7% | viability, T/C (second compound 10 µM, first compound 0.01 µM): 55.2% | viability, T/C [31]: 54.6% | viability, T/C [32]: 69.8% | viability, T/C [33]: 65.4% | viability, T/C [34]: 41%

O=C(Nc1ccc(O)c(NS(=O)(=O)c2ccc(F)cc2)c1)c1ccc(-c2ccccc2)cc1 + Cc1cccc(N(C)C(=O)C2C(O)CCN2c2nc(C)cc(C(F)(F)F)c2C#N)c1
IC50 (second compound 0.0316 µM): > 10 µM | IC50 (second compound 0.1 µM): > 10 µM | IC50 (second compound 0.316 µM): > 10 µM | IC50 (second compound 1 µM): > 10 µM | IC50 (second compound 3.16 µM): > 10 µM | IC50 (second compound 10 µM): > 10 µM | viability, T/C [1]: 90% | viability, T/C [2]: 95.2% | viability, T/C [3]: 93.6% | viability, T/C [4]: 90.3% | viability, T/C [5]: 99.6% | viability, T/C [6]: 70.8% | viability, T/C [7]: 98.2% | viability, T/C [8]: 94.5% | viability, T/C [9]: 84.1% | viability, T/C [10]: 83.6% | viability, T/C [11]: 96.5% | viability, T/C [12]: 75% | viability, T/C [13]: 86.4% | viability, T/C [14]: 88.2% | viability, T/C [15]: 103% | viability, T/C [16]: 99.2% | viability, T/C [17]: 84.8% | viability, T/C [18]: 70.2% | viability, T/C [19]: 95.7% | viability, T/C [20]: 88.1% | viability, T/C [21]: 96.6% | viability, T/C [22]: 99.9% | viability, T/C [23]: 92.4% | viability, T/C [24]: 72.6% | viability, T/C [25]: 97.5% | viability, T/C [26]: 97.7% | viability, T/C [27]: 89% | viability, T/C [28]: 90.6% | viability, T/C [29]: 84.6% | viability, T/C [30]: 69% | viability, T/C [31]: 92.2% | viability, T/C [32]: 87.4% | viability, T/C [33]: 89.2% | viability, T/C [34]: 85.5% | viability, T/C [35]: 93.5% | viability, T/C [36]: 62.5%
